According to patent US20260345641A1, “COMPOSITIONS AND USES THEREOF” (Algorae Pharmaceuticals Ltd, priority 2023, published 2026):

Test system: SH-SY5Y cells
Assay: Gene expression analysis by RNA sequencing in the presence of Aβ
Format: cell-based, human
Conditions: 5 μM, with Aβ
Text: The SH-S5Y5 neuroblastoma cell line was used for pre-clinical analysis. The SH-S5Y5 cell line is commonly used as a model for neurodegenerative disorders as the cells can be converted to various types of functional neurons by the addition of specific compounds (see, e.g., Xicoy et al., 2017, Molecular Neurodegeneration, 12: 10). In addition, the SH-S5Y5 cell line has been used widely in experimental neurological studies, including analysis of neuronal differentiation, metabolism, and function related to neurodegenerative processes, neurotoxicity and neuroprotection (see, e.g., Datki et al., 2003, Brain Research Bulletin, 62(3): 22-229; and Xie et al., 2010, Chinese Medical Journal, 123(8): 1086-1092).
Total RNA was isolated from cells using TRIzol in accordance with the manufacturer's instructions (Invitrogen, Carlsbad, CA, USA). RNA concentration and quality was assessed using a NanoDrop spectrophotometer. Only samples with a 260/280 ratio of ≥1.8 were used for further analysis.
Messenger RNA (mRNA) was purified from total RNA using poly-T oligo attached magnetic beads. After fragmentation, cDNA synthesis was performed in accordance with the manufacturer's instructions (Illumina, San Diego, CA, USA) to generate a directional and non-directional library. Libraries were checked with Qubit, real-time PCR was performed for quantification, and size distribution detection was performed using the Bioanalyzer. Quantified libraries were pooled and sequenced on an Illumina platform, according to the manufacturer's instructions.
Raw reads were filtered and mapped to human reference genome (GRCh38/hg38) using HISAT2. Differential gene expression analysis was performed using R Package DEG seq2. […] Manual annotation of genes previously associated with specific neurodegenerative disorders and dementias was performed following a text mining analysis.

COc1cc2c(cc1OC)C(=O)C(CC1CCN(Cc3ccccc3)CC1)C2 (stereo not shown) [Donepezil]
ATP13A2 gene expression (control 7.789, P 0.022): 5.931 | TUBB4A gene expression (control 7.889, P 0.013): 12.522 | C19orf12 gene expression (control 8.149, P 0.002): 8.062 | COMT gene expression (control 8.395, P 0.009): 7.242 | CLCN6 gene expression (control 8.460, P 0.007): 9.489 | SLC2A1 gene expression (control 8.472, P 0.018): 9.539 | KIF5A gene expression (control 8.491, P 0.023): 7.978 | MT-TE gene expression (control 8.733, P 0.049): 14.784 | ASTN2 gene expression (control 8.739, P 0.008): 10.467 | GAP43 gene expression (control 8.840, P 0.016): 14.884 | HTRA1 gene expression (control 8.986, P 0.035): 3.452 | GPT2 gene expression (control 9.062, P 0.018): 9.323 | RELN gene expression (control 9.086, P 0.007): 8.830 | MAP2 gene expression (control 9.232, P 0.018): 13.284 | FAR1 gene expression (control 9.502, P 0.001): 9.330 | ULK1 gene expression (control 9.616, P 0.008): 7.435 | MT-TR gene expression (control 9.625, P 0.053): 7.395 | AUH gene expression (control 9.982, P 0.001): 9.689 | UBQLN2 gene expression (control 10.132, P 0.055): 10.681 | TP53 gene expression (control 10.247, P 0.010): 10.184 | RNF216 gene expression (control 10.517, P 0.005): 11.360 | LMNB1 gene expression (control 10.575, P 0.020): 13.789 | SDHA gene expression (control 10.591, P 0.002): 10.690 | CTSF gene expression (control 10.619, P 0.034): 12.207 | PHIP gene expression (control 10.884, P 0.000): 10.131 | NEAT1 gene expression (control 10.972, P 0.010): 8.854 | GSR gene expression (control 10.993, P 0.009): 14.077 | NBEA gene expression (control 11.016, P 0.010): 12.180 | HEXB gene expression (control 11.029, P 0.010): 11.767 | NIPA1 gene expression (control 11.189, P 0.025): 10.862 | PDGFRA gene expression (control 11.237, P 0.009): 11.624 | SORT1 gene expression (control 11.268, P 0.004): 9.054 | DLAT gene expression (control 11.385, P 0.035): 10.390 | CTSA gene expression (control 11.863, P 0.001): 12.014 | AIFM1 gene expression (control 11.948, P 0.026): 10.769 | KIF4A gene expression (control 12.106, P 0.000): 12.317 | PIK3CA gene expression (control 12.209, P 0.057): 9.685 | MT-TM gene expression (control 12.408, P 0.006): 7.334 | PSEN1 gene expression (control 12.549, P 0.033): 10.463 | CST3 gene expression (control 12.563, P 0.049): 14.607 | PNKP gene expression (control 12.578, P 0.015): 13.753 | UBE4A gene expression (control 12.586, P 0.050): 11.589 | PANK2 gene expression (control 12.767, P 0.010): 5.414 | PINK1 gene expression (control 12.825, P 0.001): 9.640 | SERPINI1 gene expression (control 12.857, P 0.025): 12.924 | NEFL gene expression (control 13.063, P 0.010): 22.943 | TOMM40 gene expression (control 13.758, P 0.001): 15.441 | PMPCA gene expression (control 13.790, P 0.022): 11.969 | PRKAR1B gene expression (control 13.838, P 0.000): 14.889 | NGF gene expression (control 14.274, P 0.012): 1.165 | EIF2B5 gene expression (control 14.483, P 0.017): 12.247 | NEFH gene expression (control 14.777, P 0.018): 13.335 | TBK1 gene expression (control 15.661, P 0.052): 12.891 | SPG21 gene expression (control 15.666, P 0.035): 17.306 | MIR103A2 gene expression (control 15.688, P 0.029): 9.508 | DNAJC5 gene expression (control 16.143, P 0.004): 18.101 | SDHAF1 gene expression (control 16.174, P 0.024): 17.490 | ALDH18A1 gene expression (control 16.206, P 0.012): 18.398 | BIRC6 gene expression (control 16.315, P 0.045): 14.545 | SMCR8 gene expression (control 16.386, P 0.025): 9.923 | SCARB2 gene expression (control 16.783, P 0.011): 20.762 | HCFC1 gene expression (control 17.149, P 0.014): 21.365 | MT-TV gene expression (control 17.283, P 0.000): 9.882 | KCTD7 gene expression (control 18.066, P 0.016): 14.737 | CDK1 gene expression (control 18.213, P 0.001): 31.665 | WDR45 gene expression (control 18.358, P 0.008): 10.730 | ATP6V1A gene expression (control 18.408, P 0.038): 16.105 | ATXN7L3B gene expression (control 19.279, P 0.006): 20.868 | MT-TY gene expression (control 19.436, P 0.034): 14.109 | DNAJB6 gene expression (control 19.482, P 0.010): 13.438 | MT-TN gene expression (control 19.578, P 0.001): 4.546 | DNMT1 gene expression (control 19.641, P 0.019): 19.982 | HRAS gene expression (control 19.713, P 0.000): 18.552 | SNHG1 gene expression (control 19.818, P 0.004): 17.384 | SYP gene expression (control 20.006, P 0.004): 15.060 | BACE1 gene expression (control 20.034, P 0.031): 16.945 | ACHE gene expression (control 20.557, P 0.010): 15.012 | SMARCC1 gene expression (control 21.060, P 0.050): 23.108 | CPT1C gene expression (control 21.622, P 0.000): 23.209 | SETD1A gene expression (control 22.012, P 0.020): 11.489 | LRP10 gene expression (control 23.073, P 0.013): 19.237 | DIAPH1 gene expression (control 23.288, P 0.016): 23.289 | NDUFS4 gene expression (control 23.590, P 0.040): 31.457 | TIA1 gene expression (control 24.343, P 0.029): 18.552 | SORCS1 gene expression (control 24.655, P 0.014): 27.879 | MADD gene expression (control 24.804, P 0.015): 17.028 | MAP1B gene expression (control 25.187, P 0.004): 31.197 | PNPLA6 gene expression (control 25.949, P 0.007): 14.472 | HTRA2 gene expression (control 26.112, P 0.003): 24.427 | FUS gene expression (control 26.563, P 0.006): 23.115 | CHRNA3 gene expression (control 26.776, P 0.015): 35.011 | STARD7 gene expression (control 27.791, P 0.022): 25.690 | RGS4 gene expression (control 28.376, P 0.019): 23.445 | RRM2B gene expression (control 28.427, P 0.027): 15.106 | OTUD5 gene expression (control 29.629, P 0.024): 29.255 | MMADHC gene expression (control 29.814, P 0.009): 28.376 | PHF1 gene expression (control 31.064, P 0.022): 22.592 | XPR1 gene expression (control 31.247, P 0.010): 53.075 | TFG gene expression (control 31.479, P 0.015): 30.210 | DEGS1 gene expression (control 32.375, P 0.003): 28.878 | SQSTM1 gene expression (control 32.378, P 0.007): 38.955 | TCF4 gene expression (control 32.383, P 0.017): 36.707 | PDGFRB gene expression (control 32.930, P 0.001): 20.075 | UNC5C gene expression (control 33.422, P 0.001): 34.253 | COL3A1 gene expression (control 34.958, P 0.008): 29.884 | MT-TQ gene expression (control 37.146, P 0.001): 28.576 | NID1 gene expression (control 38.202, P 0.008): 51.536 | COASY gene expression (control 38.304, P 0.003): 24.487 | TMEM230 gene expression (control 40.014, P 0.054): 35.809 | GRN gene expression (control 43.913, P 0.009): 38.715 | SOD1 gene expression (control 44.413, P 0.023): 54.134 | HNRNPDL gene expression (control 44.506, P 0.001): 58.385 | EIF4G1 gene expression (control 46.194, P 0.005): 47.437 | VCP gene expression (control 49.074, P 0.025): 49.391 | ATP6V1E1 gene expression (control 51.257, P 0.048): 41.488 | GBA2 gene expression (control 53.427, P 0.010): 42.069 | PARK7 gene expression (control 54.907, P 0.006): 62.824 | EEF1A2 gene expression (control 63.840, P 0.016): 77.336 | MT-TP gene expression (control 74.063, P 0.023): 57.524 | U2AF2 gene expression (control 88.738, P 0.014): 53.895 | MT-TS1 gene expression (control 108.757, P 0.004): 75.947 | PRDX1 gene expression (control 137.725, P 0.007): 123.771 | HNRNPA1 gene expression (control 180.363, P 0.003): 274.269 | GNAS gene expression (control 193.754, P 0.003): 202.087 | MT-ND6 gene expression (control 281.366, P 0.001): 64.249 | APP gene expression (control 293.865, P 0.033): 159.632 | PFN1 gene expression (control 386.845, P 0.010): 384.213 | MT-ATP8 gene expression (control 388.214, P 0.017): 298.175 | FTL gene expression (control 423.318, P 0.015): 514.018 | MT-ND5 gene expression (control 1304.948, P 0.012): 1379.984 | MT-ND1 gene expression (control 2654.440, P 0.010): 2177.390 | MT-ND2 gene expression (control 2855.888, P 0.019): 2011.949 | MT-CYB gene expression (control 4523.043, P 0.003): 4140.601 | MT-CO3 gene expression (control 6360.482, P 0.003): 6139.890 | MT-ATP6 gene expression (control 6754.328, P 0.009): 5525.655 | COL4A1 gene expression (first listing, control 3.205, P 0.014): 6.341 | APBB2 gene expression (first listing, control 7.376, P 0.015): 5.038 | MTR gene expression (first listing, control 7.739, P 0.018): 9.723 | DNAJC6 gene expression (first listing, control 11.205, P 0.017): 14.537 | TWNK gene expression (first listing, control 25.053, P 0.010): 15.384 | COL4A1 gene expression (second listing, control 3.206, P 0.014): 4.649 | APBB2 gene expression (second listing, control 7.118, P 0.015): 6.231 | MTR gene expression (second listing, control 8.443, P 0.018): 8.954 | DNAJC6 gene expression (second listing, control 12.142, P 0.017): 12.821 | TWNK gene expression (second listing, control 22.506, P 0.010): 19.867
